Assays:
[1] = tested on: E. coli 17; experiment: Qualitative susceptibility by glucose consumption, bacteria from plated cultures (Example 2, Table 6); type: cell-based
Protocol: (§1) If the susceptibility score is a qualitative susceptibility score classifying the microorganism as "susceptible", or "non-susceptible" to an antibiotic agent the answer could be given in as little as 1 hour. Bacteria from plated cultures were suspended in cation adjusted Mueller-Hinton broth (SVA, Uppsala, Sweden) supplemented with glucose. Consequently, the concentration of microorgansims was typically two orders of magnitude higher as compared to Example 1. […] The tested microorganisms was one strain of E. faecium, two strains of E.coli and one S. aureus. Table 6. "--" denotes no measurement

[2] = tested on: E. faecium; experiment: as above; type: cell-based
Protocol: as §1

[3] = tested on: E. coli ATCC 25922; experiment: as above; type: cell-based
Protocol: as §1

[4] = tested on: S. aureus; experiment: as above; type: cell-based
Protocol: If the susceptibility score is a qualitative susceptibility score classifying the microorganism as "susceptible", or "non-susceptible" to an antibiotic agent the answer could be given in as little as 1 hour.
Bacteria from plated cultures were suspended in cation adjusted Mueller-Hinton broth (SVA, Uppsala, Sweden) supplemented with glucose. Consequently, the concentration of microorgansims was typically two orders of magnitude higher as compared to Example 1. […] The tested microorganisms was one strain of E. faecium, two strains of E.coli and one S. aureus. Table 6. "--" denotes no measurement

[5] = tested on: E. faecium; experiment: Qualitative susceptibility by glucose consumption, directly from positive BC-bottles (Example 2, Table 7); type: cell-based
Protocol: With slightly lower microbe concentrations e.g. directly from positive BC-bottles (^~10^9 CFU/ml) the results are shown at least within 2 hours, where E. coli ATCC 25922 is classified as susceptible and E. faecium is non-susceptible. Table 7. "--" denotes no measurement

[6] = tested on: Escherichia coli ATCC 25922; settings: E.coli, cited from earlier work
[7] = tested on: E. coli ATCC 25922; experiment: Qualitative susceptibility by glucose consumption, directly from positive BC-bottles (Example 2, Table 7); type: cell-based
[8] = tested on: Enterococcus faecalis (ATCC 29212); experiment: Antibiotic susceptibility by glucose consumption in culture medium, blood culture bottle inoculum (Example 1); type: cell-based; settings: for Glucose concentration t=0: 0 minutes; for Glucose concentration t=60: 60 minutes; for Glucose concentration t=120: 120 minutes; for Glucose concentration t=180: 180 minutes; for dC/dT: rate of change in glucose concentration; for Glucose concentration t=240: 240 minutes;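 as to dC/dT: rate calculated between the 60 and 180 min readings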
In short: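 Bacteria grown in blood culture bottles until positive, diluted 1:100 into cation-adjusted Mueller-Hinton broth with glucose at 1.0 mg/mL plus antibiotic (µg/mL). Glucose read by glucometer at 0–240 min.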

[9] = tested on: Enterococcus faecalis ATCC 29212; settings: E.faecalis, cited from earlier work
[10] = tested on: Staphylococcus aureus ATCC 29213; settings: S.aureus, cited from earlier work
[11] = range obtained by EUCAST from ISO 20776-1: 2006
[12] = reference MIC value, EUCAST QC tables Version 7.0, 2017

Gentamicin
Qualitative susceptibility score ([1]; E. coli 17, 256 µg/mL, plated cultures, Table 6): susceptible | Glucose concentration t=15 ([1]; [Ab] 256 µg/mL, t=15): 131 | Glucose concentration t=30 ([1]; [Ab] 256 µg/mL, t=30): 126 | Glucose concentration t=45 ([1]; [Ab] 256 µg/mL, t=45): 123 | Qualitative susceptibility score ([2]; E. faecium, 256 µg/mL, plated cultures, Table 6): non-susceptible | Glucose concentration t=0 ([2]; [Ab] 256 µg/mL, t=0): 79 | Glucose concentration t=15 ([2]; [Ab] 256 µg/mL, t=15): 47 | Qualitative susceptibility score ([3]; E. coli ATCC 25922, 256 µg/mL, plated cultures, Table 6): susceptible | Glucose concentration t=15 ([3]; [Ab] 256 µg/mL, t=15): 156 | Glucose concentration t=30 ([3]; [Ab] 256 µg/mL, t=30): 155 | Glucose concentration t=45 ([3]; [Ab] 256 µg/mL, t=45): 136 | Qualitative susceptibility score ([4]; S. aureus, 256 µg/mL, plated cultures, Table 6): susceptible | Glucose concentration t=15 ([4]; [Ab] 256 µg/mL, t=15): 137 | Glucose concentration t=30 ([4]; [Ab] 256 µg/mL, t=30): 139 | Glucose concentration t=45 ([4]; [Ab] 256 µg/mL, t=45): 131 | Qualitative susceptibility score ([5]; E. faecium, 256 µg/mL, from positive BC-bottles, within 2 hours, Table 7): non-susceptible | Glucose concentration t=0 ([5]; [Ab] 256 µg/mL, t=0): 144 | Glucose concentration t=45 ([5]; [Ab] 256 µg/mL, t=45): 105 | Glucose concentration t=60 ([5]; [Ab] 256 µg/mL, t=60): 77 | Glucose concentration t=75 ([5]; [Ab] 256 µg/mL, t=75): 47 | MIC EUCAST, range in parentheses [6, 11]: 0.25 to 1 µg/mL | MIC EUCAST [6, 12]: 0.5 µg/mL | Qualitative susceptibility score ([7]; E. coli ATCC 25922, 256 µg/mL, from positive BC-bottles, within 2 hours, Table 7): susceptible | Glucose concentration t=0 ([7]; [Ab] 256 µg/mL, t=0): 145 | Glucose concentration t=45 ([7]; [Ab] 256 µg/mL, t=45): 155 | Glucose concentration t=60 ([7]; [Ab] 256 µg/mL, t=60): 151 | Glucose concentration t=90 ([7]; [Ab] 256 µg/mL, t=90): 140 | Glucose concentration t=105 ([7]; [Ab] 256 µg/mL, t=105): 135 | MIC Measured ([8]; E.faecalis, 80% threshold of rate of change vs reference, between 60 and 180 minutes, obtained in 4 hours): 2 µg/mL | F=the rate of change in glucose concentration in relation to the reference ([8]; [Ab] 0,5 µg/mL): 148% | Glucose concentration t=0 ([8]; [Ab] 0,5 µg/mL): 146 | Glucose concentration t=60 ([8]; [Ab] 0,5 µg/mL): 160 | Glucose concentration t=120 ([8]; [Ab] 0,5 µg/mL): 138 | Glucose concentration t=180 ([8]; [Ab] 0,5 µg/mL): 97 | dC/dT ([8]; [Ab] 0,5 µg/mL): 53 | F=the rate of change in glucose concentration in relation to the reference ([8]; [Ab] 0,25 µg/mL): 144% | Glucose concentration t=0 ([8]; [Ab] 0,25 µg/mL): 142 | Glucose concentration t=60 ([8]; [Ab] 0,25 µg/mL): 156 | Glucose concentration t=120 ([8]; [Ab] 0,25 µg/mL): 143 | Glucose concentration t=180 ([8]; [Ab] 0,25 µg/mL): 87 | dC/dT ([8]; [Ab] 0,25 µg/mL): 52 | F=the rate of change in glucose concentration in relation to the reference ([8]; [Ab] 1 µg/mL): 106% | Glucose concentration t=0 ([8]; [Ab] 1 µg/mL): 145 | Glucose concentration t=60 ([8]; [Ab] 1 µg/mL): 150 | Glucose concentration t=120 ([8]; [Ab] 1 µg/mL): 138 | Glucose concentration t=180 ([8]; [Ab] 1 µg/mL): 100 | Glucose concentration t=240 ([8]; [Ab] 1 µg/mL): 36 | dC/dT ([8]; [Ab] 1 µg/mL): 38 | F=the rate of change in glucose concentration in relation to the reference ([8]; [Ab] 2 µg/mL): 75% | Glucose concentration t=0 ([8]; [Ab] 2 µg/mL): 147 | Glucose concentration t=60 ([8]; [Ab] 2 µg/mL): 156 | Glucose concentration t=120 ([8]; [Ab] 2 µg/mL): 143 | Glucose concentration t=180 ([8]; [Ab] 2 µg/mL): 110 | Glucose concentration t=240 ([8]; [Ab] 2 µg/mL): 75 | dC/dT ([8]; [Ab] 2 µg/mL): 27 | F=the rate of change in glucose concentration in relation to the reference ([8]; [Ab] 4 µg/mL): 46% | Glucose concentration t=0 ([8]; [Ab] 4 µg/mL): 147 | Glucose concentration t=60 ([8]; [Ab] 4 µg/mL): 154 | Glucose concentration t=120 ([8]; [Ab] 4 µg/mL): 151 | Glucose concentration t=180 ([8]; [Ab] 4 µg/mL): 118 | Glucose concentration t=240 ([8]; [Ab] 4 µg/mL): 104 | dC/dT ([8]; [Ab] 4 µg/mL): 17 | F=the rate of change in glucose concentration in relation to the reference ([8]; [Ab] 8 µg/mL): 14% | Glucose concentration t=0 ([8]; [Ab] 8 µg/mL): 143 | Glucose concentration t=60 ([8]; [Ab] 8 µg/mL): 155 | Glucose concentration t=120 ([8]; [Ab] 8 µg/mL): 134 | Glucose concentration t=180 ([8]; [Ab] 8 µg/mL): 136 | Glucose concentration t=240 ([8]; [Ab] 8 µg/mL): 140 | dC/dT ([8]; [Ab] 8 µg/mL): 5 | F=the rate of change in glucose concentration in relation to the reference ([8]; [Ab] 16 µg/mL): 18% | Glucose concentration t=0 ([8]; [Ab] 16 µg/mL): 147 | Glucose concentration t=60 ([8]; [Ab] 16 µg/mL): 160 | Glucose concentration t=120 ([8]; [Ab] 16 µg/mL): 152 | Glucose concentration t=180 ([8]; [Ab] 16 µg/mL): 155 | dC/dT ([8]; [Ab] 16 µg/mL): 6 | F=the rate of change in glucose concentration in relation to the reference ([8]; [Ab] 32 µg/mL): 3% | Glucose concentration t=0 ([8]; [Ab] 32 µg/mL): 143 | Glucose concentration t=60 ([8]; [Ab] 32 µg/mL): 151 | Glucose concentration t=180 ([8]; [Ab] 32 µg/mL): 142 | Glucose concentration t=240 ([8]; [Ab] 32 µg/mL): 148 | dC/dT ([8]; [Ab] 32 µg/mL): 1 | MIC EUCAST, range in parentheses [9, 11]: 4 to 16 µg/mL | MIC EUCAST [9, 12]: 8 µg/mL | MIC EUCAST, range in parentheses [10, 11]: 0.125 to 1 µg/mL | MIC EUCAST [10, 12]: 0.25 to 0.5 µg/mL

Reference: patent publication EP3717657B1, “A SYSTEM FOR ASSESSING MICROBIAL SUSCEPTIBILITY TO ANTIBIOTIC AGENTS” (Ascilion AB, priority 2017, dated 2019)
